Experiments:
Format in all cases: functional
Haemonchus contortus [1] = experiment: Parasiticidal activity against Haemonchus contortus by larval assay
Rhipicephalus sanguineus [2] = experiment: Parasiticidal activity against Rhipicephalus sanguineus assessed as mortality after 24 hrs by brown dog tick assay; parameters: concentration or dose not given beside the values
Rhipicephalus sanguineus [3] = experiment: Parasiticidal activity against Rhipicephalus sanguineus assessed per tick by brown dog tick assay
Rhipicephalus sanguineus [4] = experiment: Parasiticidal activity against Rhipicephalus sanguineus assessed as mortality at 10 ug/tick by brown dog tick assay
Ctenocephalides felis [5] = experiment: Parasiticidal activity against Ctenocephalides felis by cat flea assay
Ctenocephalides felis [6] = experiment: Parasiticidal activity against Ctenocephalides felis assessed as mortality after 24 hrs by cat flea assay; parameters: concentration or dose not given beside the values
Ctenocephalides felis [7] = experiment: Parasiticidal activity against Ctenocephalides felis after 8 hrs by cat flea assay; parameters: concentration or dose not given beside the values
[8] = tested on: Teladorsagia circumcincta; experiment: Parasiticidal activity against Ostertagia circumcincta McMaster
Haemonchus contortus [9] = experiment: Parasiticidal activity against avermectin-resistant Haemonchus contortus CAVR by larval assay
[10] = tested on: Trichostrongylus colubriformis; experiment: Parasiticidal activity against Trichostrongylus colubriformis
Haemonchus contortus [11] = experiment: Parasiticidal activity against benzimidazole and levamisole-resistant Haemonchus contortus Lawes by larval assay

Row | SMILES | LD99 (Haemonchus contortus [1]) | Activity (Ctenocephalides felis [7]) | other results
1 | CC/C(=N\OCC1CCCCC1)c1cc(Cl)ccc1NS(=O)(=O)C(F)(F)F | 7 µM | – | Activity (Rhipicephalus sanguineus [2]): 100%; LD50 (Rhipicephalus sanguineus [3]): 3.4 µg; Activity (Rhipicephalus sanguineus [4]): 100%; LC50 (Ctenocephalides felis [5]): 29 ng/cm2; Activity (Ctenocephalides felis [6]): 100%
2 | O=S(=O)(Nc1ccc(Cl)cc1/C=N/OCc1ccc(C(F)(F)F)cc1C(F)(F)F)C(F)(F)F | 0.59 µM | 10% | –
3 | CC/C(=N\OCc1ccc(Cl)cc1Cl)c1cc(Cl)ccc1NS(=O)(=O)C(F)(F)F | 0.84 µM | 94% | –
4 | CC/C(=N\OCc1ccc(C(C)(C)C)cc1)c1cc(Cl)ccc1NS(=O)(=O)C(F)(F)F | 6.9 µM | 8% | –
5 | O=S(=O)(Nc1ccc(Cl)cc1/C(=N/OCc1ccc(C(F)(F)F)cc1C(F)(F)F)c1ccccc1)C(F)(F)F | 3.1 µM | 21% | –
6 | CC/C(=N\OCc1ccc(F)cc1F)c1cc(Cl)ccc1NS(=O)(=O)C(F)(F)F | 7.2 µM | 95% | –
7 | C/C(=N\OCc1ccc(C(F)(F)F)cc1C(F)(F)F)c1cc(Cl)ccc1NS(=O)(=O)C(F)(F)F | 0.22 µM | 2% | LD99 [8]: 1.1 µM; LD99 (Haemonchus contortus [9]): 0.53 µM; LD99 [10]: 2.2 µM; LD99 (Haemonchus contortus [11]): 0.53 µM
8 | CCC/C(=N\OCc1ccc(C(F)(F)F)cc1C(F)(F)F)c1cc(Cl)ccc1NS(=O)(=O)C(F)(F)F | 2.5 µM | 79% | –
9 | CC(C)/C(=N\OCc1ccc(C(F)(F)F)cc1C(F)(F)F)c1cc(Cl)ccc1NS(=O)(=O)C(F)(F)F | 1.5 µM | 10% | –
10 | C/C(=N\Oc1ccccc1)c1cc(Cl)ccc1NS(=O)(=O)C(F)(F)F | 14 µM | 6% | –
11 | CCC/C(=N\OCc1ccc(C(F)(F)F)cc1)c1cc(Cl)ccc1NS(=O)(=O)C(F)(F)F | 3.2 µM | 36% | –
12 | CC/C(=N\OCc1ccc(C(F)(F)F)cc1C(F)(F)F)c1cc(Cl)ccc1NS(=O)(=O)C(F)(F)F | 0.56 µM | 100% | Activity (Rhipicephalus sanguineus [2]): 88%; LC50 (Ctenocephalides felis [5]): 19 ng/cm2
13 | CC(C)/C(=N\OCc1ccc(C(F)(F)F)cc1)c1cc(Cl)ccc1NS(=O)(=O)C(F)(F)F | 2.6 µM | 12% | –
14 | O=S(=O)(Nc1ccc(Cl)cc1/C=N/OCc1ccc(Cl)cc1Cl)C(F)(F)F | 2 µM | 12% | –
15 | CC/C(=N\OCc1ccc(C(F)(F)F)cc1)c1cc(Cl)ccc1NS(=O)(=O)C(F)(F)F | 0.84 µM | – | Activity (Rhipicephalus sanguineus [2]): 90%; LD50 (Rhipicephalus sanguineus [3]): 2.7 µg; LC50 (Ctenocephalides felis [5]): 17 ng/cm2; Activity (Ctenocephalides felis [6]): 98%

Source: ChEMBL document CHEMBL1140776, “Parasiticidal 2-alkoxy- and 2-aryloxyiminoalkyl trifluoromethanesulfonanilides” (2008)
